Experimental data reported in patent publication US5236934A, “1,2,3,4-tetrahydroisoquinolines useful in the treatment of CNS disorders” (E. I. Du Pont de Nemours and Company, priority 1992, dated 1993).
Several values for one entry are separate records, joined by “and”; a condition that tells them apart may be missing. Equal values may be shown once. Read-outs that look alike come from different tables or passages of the source.

Columns and labels:
[1] = system: potassium stimulated release of [3H]ACh; details: in vitro; cited from earlier work
[2] = molecular target: T1, AT2 receptor (Rattus norvegicus, UniProt P35351); experiment: [125I]AII binding to AT2 receptor, rat adrenal cortical microsomes, in the presence of 10^-5 M DuP 753 (DuP […]-insensitive sites)
T1 construct: AT1 and AT2 receptor subtypes in rat adrenal cortex microsomes; from tissue; host or cells: rat adrenal cortical microsomes (13,000-102,000 g)
T1 sequence (P35351 1-363): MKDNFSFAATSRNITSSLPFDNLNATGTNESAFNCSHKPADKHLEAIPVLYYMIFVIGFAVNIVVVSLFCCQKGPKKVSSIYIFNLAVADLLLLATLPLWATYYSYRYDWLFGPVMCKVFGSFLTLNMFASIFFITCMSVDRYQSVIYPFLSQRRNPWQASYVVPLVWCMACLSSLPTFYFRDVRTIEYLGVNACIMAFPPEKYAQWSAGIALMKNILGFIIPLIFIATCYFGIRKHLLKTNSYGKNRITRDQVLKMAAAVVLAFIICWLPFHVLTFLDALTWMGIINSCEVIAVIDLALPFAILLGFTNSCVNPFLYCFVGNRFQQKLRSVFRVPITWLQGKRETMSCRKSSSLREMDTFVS
Experimental: (§1) Procedures for the preparation of adrenal cortical microsomes and details of the binding assays are described in Chiu et al. (1989) J. Pharmacol. Exp. Ther. 250:867-874. The same procedures and conditions were used for adrenal medullary microsomes. […] After 60 min. of incubation, the reaction was terminated by addition of cold assay buffer. The bound and free radioactivity were rapidly separated through glass-fiber filters, and the trapped radioactivity was determined by gamma counting.

[3] = system: AT1 receptor; experiment: [125I]AII binding to AT1 receptor, rat adrenal cortical microsomes, in the presence of 10^-5 M EXP-655 (DuP 753-sensitive sites)
Experimental: as §1

[4] = system: AII receptors of rat adrenal cortex; type: binding; details: autoradiography; DuP 753 or EXP-655 at 10^-6 M
Experimental: (§2) Fresh tissue was frozen on powdered dry ice and stored at -70° C. until used. Sections were cut at 15 microns and thaw mounted onto gelatin subbed slides. […] Slides were placed under X-ray film (Kodak XAR-5) and exposed for 11/2 days before processing the film to produce the film autoradiograms. The slides were then fixed with paraformaldehyde vapor at 80° C. for two hours, dried under air, delipidated, and dipped in emulsion (Kodak NTB-2). The coated slides were exposed for 4-5 weeks, developed with Kodak D-19 and counter-stained with hemotoxylin-eosin to view the histology.

[5] = system: potassium current in cultured neurones; details: cited from earlier work
[6] = system: AII receptors of rat adrenal cortex; details: reported in U.S. Pat. No. 4,812,462; cited from earlier work
[7] = system: AII binding sites in the brain; experiment: Distribution of AII binding sites in brain slices
Experimental: as §2

[8] = Blood pressure lowering in hypertensive animals (renal artery-ligated hypertensive rats); type: in vivo, rat; details: doses up to 30 mg/kg, IV
[9] = system: rabbit aorta; experiment: AII-induced rabbit aortic contractions; details: at concentrations of up to 10^-5 M
[10] = system: AII receptors of rat adrenal cortex; experiment: Total specific [125I]AII binding to rat adrenal cortical microsomes
Experimental: After 60 min. of incubation, the reaction was terminated by addition of cold assay buffer. The bound and free radioactivity were rapidly separated through glass-fiber filters, and the trapped radioactivity was determined by gamma counting.

[11] = system: pial arterial dilation; details: rat cranial window, cited from earlier work
[12] = system: AII receptors of rat adrenal medulla; experiment: [125I]AII binding to rat adrenal medullary microsomes; details: rat adrenal medullary microsomes; for binding resistant to displacement: of total binding, 60 min
Experimental: as §1

[13] = system: collagenase activity in cultured cardiac fibroblasts; details: cited from earlier work
[14] = molecular target: T2, AII receptors of rat adrenal medulla (Rattus norvegicus, UniProt P35351); experiment: [125I]AII binding to rat adrenal medullary microsomes; parameters: from tissue; host or cells: rat adrenal medullary microsomes; details: rat adrenal medulla
T2 sequence (P35351 1-363): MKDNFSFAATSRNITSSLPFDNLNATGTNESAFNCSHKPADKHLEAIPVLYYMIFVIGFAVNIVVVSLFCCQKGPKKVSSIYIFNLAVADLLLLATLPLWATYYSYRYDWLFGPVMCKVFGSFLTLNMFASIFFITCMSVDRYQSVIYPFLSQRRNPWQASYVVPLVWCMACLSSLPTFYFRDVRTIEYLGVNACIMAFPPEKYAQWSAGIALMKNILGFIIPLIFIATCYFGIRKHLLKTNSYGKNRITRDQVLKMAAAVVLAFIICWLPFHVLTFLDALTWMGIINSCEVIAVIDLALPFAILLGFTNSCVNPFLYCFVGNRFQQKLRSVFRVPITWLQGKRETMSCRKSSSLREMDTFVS
Experimental: as §1

[15] = system: chick chorioallantoic membrane; details: cited from earlier work
[16] = reported in U.S. Pat. No. 4,812,462; cited from earlier work
[17] = molecular target: T2, AII receptors of rat adrenal medulla; details: autoradiography; DuP 753 or EXP-655 at 10^-6 M
Experimental: as §2

[18] = system: AII receptor subtypes of rat adrenal cortical membranes; experiment: [125I]AII binding to rat adrenal cortical membranes with and without DTT pretreatment
Text: 102:685-696, except the above binding assay conditions were used.

[19] = injected into the dorsal neostriatum; cited from earlier work
[20] = system: AII binding sites of rat aortic smooth muscle cells; experiment: AII receptor binding in rat aortic smooth muscle cells
[21] = cited from earlier work
[22] = cited from earlier work; for effect on avoidance learning: IVT
[23] = in vivo; cited from earlier work
[24] = system: trypsin activated collagenase in rat heart myocytes; details: cited from earlier work
[25] = rat adrenal cortex microsomes, in the presence of 10^-5 M EXP-655, read-out: IC50 AT1

## AI: AI (compared with AII) (DRVYIHPFHL; Angiotensin-1; UniProt P01019 25-34, looked up)
[1]
  effect on potassium-stimulated release of ACh: not AI

## O[C@H](CS)[C@H](O)CS (racemic) [DTT, dithiothreitol]
[2]
  sensitivity of AT2 receptor to DTT: resistant to DTT inactivation
[3]
  sensitivity of AT1 receptor to DTT: particularly sensitive to inactivation by DTT

## Cc1cc(Cn2cnc3c2CC(C(=O)O)N(C(=O)C(c2ccccc2)c2ccccc2)C3)ccc1N (stereo not shown) [EXP-655]
[4]
  labeling over the adrenal cortex: no apparent effect
[5]
  block of effect to increase potassium current: shown to block
[6]
  affinity for AII receptors as reported: high affinity for AII receptors
[7]
  sensitivity of AII binding sites in the brain: the majority of AII binding sites in the brain are DTT-insensitive, EXP-655-sensitive
[8]
  lowering blood pressure: inactive
[9]
  antagonizing AII-induced rabbit aortic contractions: inactive
[10]; at 3×10^-5 M, rat adrenal cortical microsomes
  inhibition of the total specific AII binding: 20%
[10]; rat adrenal cortex
  inhibition of total AII binding: 20%
[11]; listed as EXP 655
  block of pial arterial/arteriolar dilation: shown to block
[12]
  binding resistant to displacement: 10%
[13]
  block of effect to inhibit collagenase activity: shown to block
[14]
  inhibition of AII binding: 90%
[15]
  block of angiotensin II-induced increase in microvascular density / angiogenesis: shown to block
[3]; [25]
  IC50: ~300000 nM and 300000 nM
[3]; rat adrenal cortex, read-out: inhibitory constant IC50, AT1 site
  IC50: ~300000 nM
[16]
  antihypertensive activity as reported: antihypertensive agent
[17]
  labeling of the adrenal medulla: almost totally eliminated

## AII: octapeptide hormone which is a component of the renin-angiotensin system (DRVYIHPF; Angiotensin-2; UniProt P01019 25-32, looked up)
[4]
  labeling over the adrenal cortex: potently inhibited the labeling
[18]; 5 mM DTT
  enhancement of inhibitory potency by DTT: 2.5 fold
[18]; read-out: IC50 in the absence of DTT, without DTT
  IC50: 1 nM
[1]
  effect on basal levels of ACh release: without effects on basal levels
  effect on potassium-stimulated release of ACh: reduced potassium-stimulated release of ACh
[19]
  effect on retention of PA response: disruption in retention of a PA response
[17]
  labeling of the adrenal medulla: potently inhibited the labeling

## CGP42112A
[15]
  block of angiotensin II-induced increase in microvascular density / angiogenesis: block the increase in microvascular density

## CCCCc1nc(Cl)c(CO)n1Cc1ccc(-c2ccccc2-c2nn[nH]n2)cc1 [DuP 753]
[20]
  sensitivity of AII binding sites, rat aortic smooth muscle cells: primarily the DuP 753-sensitive AII binding sites (AT1)
[4]
  labeling over the adrenal cortex: significantly reduced
[18]; 5 mM DTT
  effect of DTT on inhibition of AII binding: essentially abolished in the presence of DTT
[10]; over a two-log concentration increase, 60 min
  plateau of constant binding: about 28 % of the total receptor-bound AII
[10]; rat adrenal cortex
  inhibition of total AII binding: 80%
[10]; rat adrenal cortex, read-out: IC50 on the sensitive sites
  IC50: ~5 nM
[10]; rat adrenal cortical microsomes, DuP 753-sensitive site, read-out: approximated IC50, first site of biphasic displacement
  IC50: ~5 nM
[12]; below 1×10^-6 M
  inhibition of binding: 10%
[12]
  binding resistant to displacement: About 90%
[14]
  inhibition of AII binding: essentially inactive as an antagonist
[17]
  labeling of the adrenal medulla: not appreciably affected

## C[C@H](CS)C(=O)N1CCC[C@H]1C(=O)O [captopril]
[21]; daily treatment
  scopolamine-induced disruption of performance: prevented
[21]; subchronic treatment
  light/dark habituation performance, rate of acquisition: increased the rate of acquisition
[22]
  effect on avoidance learning: prevented the renin-induced avoidance disruption

## NCCCC[C@H](OP(=O)(O)CCCCc1ccccc1)C(=O)N1CCC[C@H]1C(=O)O [SQ 29852]
[23]
  memory of previously learned tasks: protective effects on memory of previously learned tasks

## NC(=O)[C@@H]1CCCN1C(=O)[C@H](Cc1cnc[nH]1)NC(=O)[C@@H]1CCC(=O)N1 [thyrotropin releasing hormone]
[19]
  effect on retention of PA response: no effect

## O=C(O)C1Cc2cc(Oc3ccccc3)ccc2CN1C(=O)C(c1ccccc1)c1ccccc1 (stereo not shown) [Example 32, 2-Diphenylacetyl-6-phenoxy-1,2,3,4-tetrahydroisoquinoline-3-carboxylic acid]
[2]
  IC50: 70 nM
[3]; [25]
  IC50: > 10000 nM

## COc1ccc(-c2cccc3c2CC(C(=O)O)N(C(=O)C(c2ccccc2)c2ccccc2)C3)cc1C (stereo not shown) [Example 25]
[2]
  IC50: 60 nM
[3]; [25]
  IC50: > 10000 nM

## Cc1cc(Cn2cnc3c2CC(C(=O)O)N(C(=O)C(c2ccccc2)c2ccccc2)C3)ccc1N (stereo not shown) [PD123177]
[11]
  block of pial arterial/arteriolar dilation: block the pial arterial dilation
[24]
  block of angiotensin II induced inhibition of trypsin activated collagenase: block the angiotensin II induced inhibition of trypsin activated collagenase

## lysine-8-vasopressin
[19]
  effect on retention of PA response: no effect

## [1-sarcosine, 8-threonine]angiotensin II
[1]
  effect on potassium-stimulated release of ACh: antagonized

## CNCC(=O)N[C@@H](CCCN=C(N)N)C(=O)N[C@H](C(=O)N[C@@H](Cc1ccc(O)cc1)C(=O)N[C@H](C(=O)N[C@@H](Cc1cnc[nH]1)C(=O)N1CCC[C@H]1C(=O)N[C@@H](C)C(=O)O)C(C)C)C(C)C [Saralasin]
[18]; 5 mM DTT
  effect of DTT on inhibition of AII binding: not significantly altered by DTT
[10]; rat adrenal cortical microsomes
  concentration giving complete displacement of AII: 100 nM
[10]; rat adrenal cortical microsomes, read-out: IC50, monophasic
  IC50: 1 nM
[3]; AT1 vs AT2
  preference for one AII receptor subtype relative to the other: no preference

B1: renin: an enzyme involved in endogenous AII biosynthesis (protein, UniProt P00797 67-406, looked up)
Renin: LTLGNTTSSVILTNYMDTQYYGEIGIGTPPQTFKVVFDTGSSNVWVPSSKCSRLYTACVYHKLFDASDSSSYKHNGTELTLRYSTGTVSGFLSQDIITVGGITVTQMFGEVTEMPALPFMLAEFDGVVGMGFIEQAIGRVTPIFDNIISQGVLKEDVFSFYYNRDSENSQSLGGQIVLGGSDPQHYEGNFHYINLIKTGVWQIQMKGVSVGSSTLLCEDGCLALVDTGASYISGSTSSIEKLMEALGAKKRLFDYVVKCNEGPTLPDISFHLGGKEYTLTSADYVFQESYSSKKLCTLAIHAMDIPPPTGPTWALGATFIRKFYTEFDRRNNRIGFALAR
[22]
  effect on avoidance learning: disruption of avoidance learning
[22]; increased from 40, renin IVT
  AII level in CSF after renin: about 5000 fmol per mL
